From PubChem BioAssay AID270 (DTP/NCI, 2004)
Values joined by “and” are separate entries in the source; they are usually repeats but may differ in a detail not shown here. Equal entries are not always repeated. Records with an inconclusive call do not appear.

Tested on: BDF1 mice, s.c. Lewis lung carcinoma, T/C %
Test: NCI In Vivo Anticancer Drug Screen. Data for tumor model Lewis Lung Carcinoma (subcutaneous) in B6D2F1 (BDF1) mice
How it was run: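 First, mice carry a transplantable tumor. Next, groups receive either compound or vehicle. Finally, survival or tumor dimensions in the dosed animals are divided by the corresponding control figure.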

[1] = endpoint: median survival time, dose: 3.0 mg/kg/injection, schedule: Q01DX009 (ip), vehicle: saline with Tween-80, higher = longer survival
[2] = endpoint: median survival time, dose: 6.25 mg/kg/injection, schedule: Q01DX009 (ip), vehicle: Klucel (hydroxypropylcellulose) (HPC), higher = longer survival
[3] = endpoint: median survival time, dose: 25.0 mg/kg/injection, schedule: Q01DX009 (ip), vehicle: Klucel (hydroxypropylcellulose) (HPC), higher = longer survival
[4] = endpoint: median survival time, dose: 50.0 mg/kg/injection, schedule: Q01DX009 (ip), vehicle: Klucel (hydroxypropylcellulose) (HPC), higher = longer survival
[5] = endpoint: median survival time, dose: 100.0 mg/kg/injection, schedule: Q01DX009 (ip), vehicle: Klucel (hydroxypropylcellulose) (HPC), higher = longer survival
[6] = endpoint: mean tumor weight, dose: 25.0 mg/kg/injection, schedule: Q01DX011 (ip), vehicle: saline, higher = larger tumour
[7] = endpoint: mean tumor weight, dose: 50.0 mg/kg/injection, schedule: Q01DX011 (ip), vehicle: saline, higher = larger tumour

CC[CH2][Pb]([CH2]CC)([CH2]CC)[O]C(=O)C(Cl)(Cl)Cl
T/C (endpoint: median survival time, dose: 0.19 mg/kg/injection, schedule: Q01DX009 (ip), vehicle: saline with Tween-80, higher = longer survival): 101 % of control | T/C (endpoint: median survival time, dose: 0.38 mg/kg/injection, schedule: Q01DX009 (ip), vehicle: saline with Tween-80, higher = longer survival): 94 % of control | T/C (endpoint: median survival time, dose: 0.75 mg/kg/injection, schedule: Q01DX009 (ip), vehicle: saline with Tween-80, higher = longer survival): 90 % of control | T/C (endpoint: median survival time, dose: 1.5 mg/kg/injection, schedule: Q01DX009 (ip), vehicle: saline with Tween-80, higher = longer survival): 103 % of control | T/C [1]: 106 % of control | T/C (endpoint: median survival time, dose: 6.0 mg/kg/injection, schedule: Q01DX009 (ip), vehicle: saline with Tween-80, higher = longer survival): 106 % of control

CNc1nc(N(C)C)nc(N(C)C)n1
T/C (endpoint: median survival time, dose: 67.0 mg/kg/injection, schedule: Q01DX009 (ip), vehicle: water, higher = longer survival): 91 % of control | T/C (endpoint: median survival time, dose: 100.0 mg/kg/injection, schedule: Q01DX009 (ip), vehicle: water, higher = longer survival): 116 % of control

C1=CC2(OCCO2)C2CC=CC3(OCCO3)C2C1 (stereo not given)
T/C [2]: 88 % of control | T/C (endpoint: median survival time, dose: 12.5 mg/kg/injection, schedule: Q01DX009 (ip), vehicle: Klucel (hydroxypropylcellulose) (HPC), higher = longer survival): 100 % of control | T/C [3]: 95 % of control and 97 % of control | T/C [4]: 93 % of control | T/C [5]: 106 % of control

ClCCCN1CCCCC1CCl (stereo not given)
T/C (endpoint: median survival time, dose: 3.12 mg/kg/injection, schedule: Q04DX003 (ip), vehicle: saline, higher = longer survival): 96 % of control | T/C (endpoint: median survival time, dose: 6.25 mg/kg/injection, schedule: Q04DX003 (ip), vehicle: saline, higher = longer survival): 113 % of control | T/C (endpoint: median survival time, dose: 12.5 mg/kg/injection, schedule: Q04DX003 (ip), vehicle: saline, higher = longer survival): 104 % of control

O=NN(CCCl)C(=O)Nc1ccc2c(c1)OCO2
T/C (endpoint: median survival time, dose: 3.13 mg/kg/injection, schedule: Q01DX009 (ip), vehicle: saline with Tween-80, higher = longer survival): 98 % of control | T/C (endpoint: median survival time, dose: 6.25 mg/kg/injection, schedule: Q01DX009 (ip), vehicle: saline with Tween-80, higher = longer survival): 116 % of control | T/C (endpoint: median survival time, dose: 12.5 mg/kg/injection, schedule: Q01DX009 (ip), vehicle: saline with Tween-80, higher = longer survival): 102 % of control

OC1c2cc(Cl)ccc2-c2c(Cl)cc(Cl)cc21 (stereo not given)
T/C (endpoint: mean tumor weight, dose: 63.0 mg/kg/injection, schedule: Q01DX011 (ip), vehicle: carboxymethylcellulose (CMC), higher = larger tumour): 64 % of control | T/C (endpoint: mean tumor weight, dose: 125.0 mg/kg/injection, schedule: Q01DX011 (ip), vehicle: carboxymethylcellulose (CMC), higher = larger tumour): 58 % of control | T/C (endpoint: mean tumor weight, dose: 190.0 mg/kg/injection, schedule: Q01DX011 (ip), vehicle: carboxymethylcellulose (CMC), higher = larger tumour): 61 % of control

COc1ccc(CC2C(=O)NC(C)C(=O)N(C)C3Cc4ccc(cc4)Oc4cc(ccc4O)CC(C(=O)NC(C)C(=O)NC(C)C(=O)N2C)N(C)C3=O)cc1 (stereo not given)
T/C (endpoint: median survival time, dose: 1.0 mg/kg/injection, schedule: Q01DX009 (ip), vehicle: saline, higher = longer survival): 103 % of control | T/C (endpoint: median survival time, dose: 2.0 mg/kg/injection, schedule: Q01DX009 (ip), vehicle: saline, higher = longer survival): 111 % of control

O=NN(CCCl)C(=O)Nc1ccc2c3c(cccc13)-c1ccccc1-2
T/C [4]: 100 % of control | T/C [5]: 97 % of control | T/C (endpoint: median survival time, dose: 200.0 mg/kg/injection, schedule: Q01DX009 (ip), vehicle: Klucel (hydroxypropylcellulose) (HPC), higher = longer survival): 88 % of control

C=C1CC/C=C(\C)CCC2C1CC2(C)C (stereo not given)
T/C [6]: 94 % of control | T/C [7]: 88 % of control | T/C (endpoint: mean tumor weight, dose: 100.0 mg/kg/injection, schedule: Q01DX011 (ip), vehicle: saline, higher = larger tumour): 45 % of control

COC1=C(N)C(=O)c2nc(-c3nc(C(=O)O)c(C)c(-c4ccc(OC)c(OC)c4O)c3N)ccc2C1=O
T/C (endpoint: mean tumor weight, dose: 0.06 mg/kg/injection, schedule: Q01DX011 (ip), vehicle: water, higher = larger tumour): 68 % of control | T/C (endpoint: mean tumor weight, dose: 0.12 mg/kg/injection, schedule: Q01DX011 (ip), vehicle: water, higher = larger tumour): 56 % of control | T/C (endpoint: mean tumor weight, dose: 0.25 mg/kg/injection, schedule: Q01DX011 (ip), vehicle: water, higher = larger tumour): 42 % of control | T/C (endpoint: median survival time, dose: 62.5 micrograms/kg/injection, schedule: Q01DX009 (ip), vehicle: saline, higher = longer survival): 98 % of control | T/C (endpoint: median survival time, dose: 125.0 micrograms/kg/injection, schedule: Q01DX009 (ip), vehicle: saline, higher = longer survival): 112 % of control | T/C (endpoint: median survival time, dose: 250.0 micrograms/kg/injection, schedule: Q01DX009 (ip), vehicle: saline, higher = longer survival): 98 % of control

CCOC(C)C(/C=N/NC(N)=S)=NNC(N)=S (stereo not given)
T/C (endpoint: mean tumor weight, dose: 30.0 mg/kg/injection, schedule: Q01DX011 (ip), vehicle: saline, higher = larger tumour): 77 % of control | T/C (endpoint: mean tumor weight, dose: 60.0 mg/kg/injection, schedule: Q01DX011 (ip), vehicle: saline, higher = larger tumour): 81 % of control | T/C (endpoint: mean tumor weight, dose: 120.0 mg/kg/injection, schedule: Q01DX011 (ip), vehicle: saline, higher = larger tumour): 66 % of control

CS(=O)(=O)OCCCCCCCCCOS(C)(=O)=O
T/C (endpoint: mean tumor weight, dose: 12.5 mg/kg/injection, schedule: Q01DX011 (ip), vehicle: carboxymethylcellulose (CMC), higher = larger tumour): 104 % of control and 105 % of control | T/C (endpoint: mean tumor weight, dose: 25.0 mg/kg/injection, schedule: Q01DX011 (ip), vehicle: carboxymethylcellulose (CMC), higher = larger tumour): 68 % of control and 84 % of control

O=C1C=CC(=Nc2ccc(O)c3ncccc23)c2cccnc21
T/C (endpoint: mean tumor weight, dose: 12.5 mg/kg/injection, schedule: Q01DX011 (ip), vehicle: saline, higher = larger tumour): 94 % of control | T/C [6]: 49 % of control | T/C [7]: 26 % of control

O=NN(CCCl)C(=O)Nc1cccc(O)c1
T/C [3]: 116 % of control

CC(C)(c1ccccc1)c1ccc(O)cc1
T/C (endpoint: mean tumor weight, dose: 45.0 mg/kg/injection, schedule: Q01DX011 (ip), vehicle: carboxymethylcellulose (CMC), higher = larger tumour): 82 % of control | T/C (endpoint: mean tumor weight, dose: 65.0 mg/kg/injection, schedule: Q01DX011 (ip), vehicle: carboxymethylcellulose (CMC), higher = larger tumour): 60 % of control

CCOC(=O)NP(=O)(N1CC1)N1CC1
T/C (endpoint: mean tumor weight, dose: 2.5 mg/kg/injection, schedule: Q01DX011 (ip), vehicle: saline, higher = larger tumour): 61 % of control and 75 % of control | T/C (endpoint: mean tumor weight, dose: 5.0 mg/kg/injection, schedule: Q01DX011 (ip), vehicle: saline, higher = larger tumour): 35 % of control and 56 % of control

O=C(O)/C=C\C(=O)Nc1nccs1
T/C (endpoint: mean tumor weight, dose: 50.0 mg/kg/injection, schedule: Q01DX011 (ip), vehicle: carboxymethylcellulose (CMC), higher = larger tumour): 87 % of control | T/C (endpoint: mean tumor weight, dose: 100.0 mg/kg/injection, schedule: Q01DX011 (ip), vehicle: carboxymethylcellulose (CMC), higher = larger tumour): 85 % of control

CCCCCCCCCCCCNCCCCCCCCCCCC
T/C (endpoint: mean tumor weight, dose: 2.5 mg/kg/injection, schedule: Q01DX011 (ip), vehicle: other, higher = larger tumour): 78 % of control | T/C (endpoint: mean tumor weight, dose: 5.0 mg/kg/injection, schedule: Q01DX011 (ip), vehicle: other, higher = larger tumour): 67 % of control | T/C (endpoint: mean tumor weight, dose: 10.0 mg/kg/injection, schedule: Q01DX011 (ip), vehicle: other, higher = larger tumour): 55 % of control

CC(=O)[C@H]1CC[C@H]2[C@@H]3CC[C@@H]4CC(=O)CC[C@]4(C)[C@H]3[C@@H]3O[C@@H]3[C@]12C
T/C (endpoint: mean tumor weight, dose: 37.0 mg/kg/injection, schedule: Q01DX011 (ip), vehicle: other, higher = larger tumour): 150 % of control | T/C (endpoint: mean tumor weight, dose: 55.0 mg/kg/injection, schedule: Q01DX011 (ip), vehicle: other, higher = larger tumour): 99 % of control | T/C (endpoint: mean tumor weight, dose: 83.0 mg/kg/injection, schedule: Q01DX011 (ip), vehicle: other, higher = larger tumour): 108 % of control | T/C (endpoint: mean tumor weight, dose: 250.0 mg/kg/injection, schedule: Q01DX011 (ip), vehicle: other, higher = larger tumour): 122 % of control

c1ccc([As+](c2ccccc2)(c2ccccc2)c2ccccc2)cc1
T/C (endpoint: median survival time, dose: 1.87 mg/kg/injection, schedule: Q01DX009 (ip), vehicle: Klucel (hydroxypropylcellulose) (HPC), higher = longer survival): 97 % of control | T/C (endpoint: median survival time, dose: 3.75 mg/kg/injection, schedule: Q01DX009 (ip), vehicle: Klucel (hydroxypropylcellulose) (HPC), higher = longer survival): 95 % of control

CCc1ccc(NC(=O)N(CCCl)N=O)cc1
T/C (endpoint: median survival time, dose: 1.9 mg/kg/injection, schedule: Q01DX009 (ip), vehicle: Klucel (hydroxypropylcellulose) (HPC), higher = longer survival): 108 % of control | T/C (endpoint: median survival time, dose: 7.5 mg/kg/injection, schedule: Q01DX009 (ip), vehicle: Klucel (hydroxypropylcellulose) (HPC), higher = longer survival): 98 % of control | T/C (endpoint: median survival time, dose: 15.0 mg/kg/injection, schedule: Q01DX009 (ip), vehicle: Klucel (hydroxypropylcellulose) (HPC), higher = longer survival): 95 % of control

CCOC(=O)NC1=C(N2CC2)C(=O)C(NC(=O)OCC)=C(N2CC2)C1=O
T/C (endpoint: median survival time, dose: 0.5 mg/kg/injection, schedule: Q01DX009 (ip), vehicle: saline with Tween-80, higher = longer survival): 110 % of control | T/C (endpoint: median survival time, dose: 0.67 mg/kg/injection, schedule: Q01DX005 (ip), vehicle: saline with Tween-80, higher = longer survival): 92 % of control | T/C (endpoint: median survival time, dose: 2.5 mg/kg/injection, schedule: Q01DX005 (ip), vehicle: saline with Tween-80, higher = longer survival): 91 % of control | T/C [1]: 100 % of control | T/C (endpoint: median survival time, dose: 3.0 mg/kg/injection, schedule: Q04DX003 (ip), vehicle: saline with Tween-80, higher = longer survival): 86 % of control | T/C (endpoint: median survival time, dose: 4.0 mg/kg/injection, schedule: Q04DX003 (ip), vehicle: saline with Tween-80, higher = longer survival): 93 % of control | T/C (endpoint: median survival time, dose: 4.5 mg/kg/injection, schedule: Q01DX009 (ip), vehicle: saline with Tween-80, higher = longer survival): 96 % of control | T/C (endpoint: median survival time, dose: 17.0 mg/kg/injection, schedule: Q01DX001 (ip), vehicle: saline with Tween-80, higher = longer survival): 100 % of control | T/C (endpoint: median survival time, dose: 26.0 mg/kg/injection, schedule: Q01DX001 (ip), vehicle: saline with Tween-80, higher = longer survival): 86 % of control

NC(=S)N/N=C\c1ncnc2ccccc12
T/C (endpoint: median survival time, dose: 1.6 mg/kg/injection, schedule: Q01DX009 (ip), vehicle: Klucel (hydroxypropylcellulose) (HPC), higher = longer survival): 104 % of control | T/C (endpoint: median survival time, dose: 3.12 mg/kg/injection, schedule: Q01DX009 (ip), vehicle: Klucel (hydroxypropylcellulose) (HPC), higher = longer survival): 103 % of control | T/C [2]: 96 % of control and 108 % of control
